Experimental data as given in article PMC8155856, “Synthesis and Characterization of Radiogallium-Labeled Cationic Amphiphilic Peptides as Tumor Imaging Agents” (Cancers, 2021).
Non-standard residues stand in square brackets, D forms with d. Residues, ends and D or L forms follow the SMILES beside them. *: point of attachment. FITC = O=C1OC2(c3ccc(O)cc3Oc3cc(O)ccc32)c2ccc(NC(=S)*)cc21; NOTA = O=C(O)CN1CCN(CC(=O)O)CCN(CC(=O)*)CC1; Ahx = NCCCCCC(=O)O

Key:
3T3-L1 cells [1] = assay: Confocal fluorescence microscopic imaging of FITC-CAPs; assay type: cell-based, mouse; conditions: 10 µM, 1 h, confocal laser scanning microscope
Description: (§1) KB and 3T3-L1 cells were cultured on 8-well chambered cover glasses (Iwaki, Tokyo, Japan) and incubated with FITC-CAPs (10 μM) for 1 h. The medium was removed and cells were washed twice with ice-cold PBS containing heparin (20 units/mL) and twice with ice-cold PBS. Subsequently, the cells were incubated with Hoechst 33342 (2.5 µg/mL) for 30 min and then washed twice with ice-cold PBS. Fluorescent images were captured using a confocal laser scanning microscope (LSM710, Carl Zeiss Inc., Jena, Germany) with excitation wavelengths of 405 nm (UV laser) for Hoechst 33342 and 488 nm (Ar laser) for FITC-CAPs.

KB cells [2] = assay: Cellular uptake of FITC-CAPs; assay type: cell-based; conditions: 1 μM, 37 °C, 2 h post-incubation, heparin/PBS wash, lysate fluorescence; mean ± SEM, n = 7–13
Description: (§2) Epidermoid carcinoma KB cells were provided by DS Pharma Biomedical Co., Ltd. (Suita, Japan). Mouse fibroblast-like 3T3-L1 cells were obtained from the JCRB Cell Bank (Tokyo, Japan). KB cells were cultured in Eagle’s minimal essential medium supplemented with 10% fetal bovine serum. The 3T3-L1 cells were grown in Dulbecco’s modified Eagle’s medium supplemented with 10% bovine calf serum. All media were supplemented with 100 IU/mL penicillin and 100 μg/mL streptomycin. The cells were maintained in a humidified atmosphere containing 5% CO2 at 37 °C.
(§3) Each cell line was grown to confluence in a 12-well plate and washed with PBS. FITC-CAPs (1 μM) or ^67Ga-NOTA-CAPs (1.0 kBq) (Figure S2C) in a growing medium (0.6 mL) were added to each cell and incubated at 37 °C for each time point. After incubation, the cells were washed twice with 20 units of heparin/PBS (0.5 mL) and lysed using cell lysis buffer M from Fujifilm Wako (Osaka, Japan) at 37 °C for 20 min. The radioactivity and fluorescence of the lysates was measured using a gamma counter and fluorescence microplate reader, respectively, and the protein concentration was determined using a Bradford protein assay kit (Bio-Rad, Hercules, CA, USA). Data are expressed as percentage uptake per milligram of protein (% uptake/mg protein).

KB cells [3] = assay: Confocal fluorescence microscopic imaging of FITC-CAPs; assay type: cell-based; conditions: 10 µM, 1 h, confocal laser scanning microscope
Description: as §1

3T3-L1 cells [4] = assay: Cellular uptake of FITC-CAPs; assay type: cell-based, mouse; conditions: 1 μM; for Difference in FITC-CAP uptake between KB and 3T3-L1 cells (specificity for cancer cells): 2 h, ANOVA with Tukey's test
Description: as §2, §3

KB tumor-bearing mice [5] = assay: Biodistribution in tumor-bearing mice; conditions: 30 min after administration, KB xenograft, i.v.; mean (SD) of 4–6 mice
Description: (§4) BALB/c nu/nu mice (female; 4 weeks old) were supplied by Japan SLC Inc. (Shizuoka, Japan). The mice were maintained in a room at a constant ambient temperature and a 12/12 h light/dark cycle, and they were given free access to food and water. Mice were subcutaneously injected on their right shoulders with approximately 1.0 × 10^7 KB cells. The tumors were allowed to reach 300–500 mm^3 (1‒2 weeks after inoculation) before biodistribution studies were performed.
(§5) The ^67Ga-NOTA-CAPs (10 kBq/100 μL) were intravenously injected into the mice via the tail vein. The mice were sacrificed at the designated time intervals, and the organs were dissected. The tissues were then weighed, and radioactivity was measured by automated gamma counting (n = 5).

[6] = Biodistribution in tumor-bearing mice; conditions: female, BALB/c nu/nu, mouse, iv, 10 kBq/100 uL, total radioactivity
Description: as §4, §5

[7] = In vitro stability in mouse plasma; conditions: freshly prepared mouse plasma, 37 °C, 1 h, 10 μL tracer + 90 μL plasma, CH3CN precipitation, HPLC; mean (SEM) of three experiments
Description: The in vitro stability of ^67Ga-NOTA-CAPs in phosphate-buffered saline (PBS) and mouse plasma was analyzed according to a previously reported procedure [29, 30, 31]. In brief, each radiotracer (10 μL; 2.0–3.0 MBq) was added to PBS (90 μL) and incubated at 37 °C for 24 h or to freshly prepared mouse plasma (90 μL) and incubated at 37 °C for 1 h. […] The mouse plasma solution was added to ice-cold CH3CN (300 μL) and centrifuged at 9400 rcf for 4 min. The supernatant was filtered through a 0.22 μm membrane before HPLC analysis.

KB tumor-bearing mice [8] = conditions: mouse, in vivo
Description: as §4, §5

in vivo = conditions: female, BALB/c nu/nu, mouse, iv, 10 kBq/100 uL, total radioactivity
Description: as §4, §5

Tumor uptake (KB tumor-bearing mice [5])	tissue uptake at 2 h ([6]; kidney) [%ID/g]	tissue to tissue ratio at 2 h ([6]; tumor/blood)	tissue to tissue ratio at 2 h ([6]; tumor/muscle)	In vitro stability in mouse plasma, percentage of remaining intact radiotracer [7]	tissue uptake at 2 h ([6]; liver) [%ID/g]	SMILES	Fluorescence signal in 3T3-L1 cells (3T3-L1 cells [1])	Cellular uptake of FITC-CAPs into KB cells (KB cells [2])	Cellular localization in KB cells (KB cells [3])	Difference in FITC-CAP uptake between KB and 3T3-L1 cells (specificity for cancer cells) (3T3-L1 cells [4])	Cellular uptake of FITC-CAPs into 3T3-L1 cells (3T3-L1 cells [4]; 37 °C, 2 h post-incubation, heparin/PBS wash, lysate fluorescence, mean ± SEM, n = 7–13)	Tumor-to-blood ratio compared among tracers (KB tumor-bearing mice [8])	Tumor-to-muscle ratio compared among tracers (KB tumor-bearing mice [8])	tissue uptake at 2 h (in vivo) [%ID/g]
						CC(C)[C@H](NC(=O)[C@H](Cc1c[nH]cn1)NC(=O)[C@@H](NC(=O)[C@H](Cc1c[nH]cn1)NC(=O)[C@@H](NC(=O)[C@H](Cc1c[nH]cn1)NC(=O)[C@@H](NC(=O)[C@@H]1CCCN1C(=O)[C@H]1CCCN1C(=O)[C@@H](NC(=O)[C@H](Cc1c[nH]cn1)NC(=O)[C@@H](NC(=O)[C@H](Cc1c[nH]cn1)NC(=O)[C@@H](NC(=O)[C@H](Cc1c[nH]cn1)NC(=O)[C@@H](NC(=O)[C@H](Cc1c[nH]cn1)NC(=O)CCCCCNC(=S)Nc1ccc2c(c1)C(=O)OC21c2ccc(O)cc2Oc2cc(O)ccc21)C(C)C)C(C)C)C(C)C)C(C)C)[C@@H](C)O)C(C)C)C(C)C)C(=O)N[C@@H](Cc1c[nH]cn1)C(N)=O [FITC-HV6] ({FITC-Ahx}-HVHVHVHV[dP]PTHVHVHVH-NH2)	low fluorescence signals	19.0% ± 0.94 % uptake/mg protein	also accumulated in the cytoplasm and nucleus	high selectivity for cancer cells				
						CC(C)[C@H](NC(=O)[C@H](CCCNC(=N)N)NC(=O)[C@@H](NC(=O)[C@H](CCCNC(=N)N)NC(=O)[C@@H](NC(=O)[C@H](CCCNC(=N)N)NC(=O)[C@@H](NC(=O)[C@@H]1CCCN1C(=O)[C@H]1CCCN1C(=O)[C@@H](NC(=O)[C@H](CCCNC(=N)N)NC(=O)[C@@H](NC(=O)[C@H](CCCNC(=N)N)NC(=O)[C@@H](NC(=O)[C@H](CCCNC(=N)N)NC(=O)[C@@H](NC(=O)[C@H](CCCNC(=N)N)NC(=O)CCCCCNC(=S)Nc1ccc2c(c1)C(=O)OC21c2ccc(O)cc2Oc2cc(O)ccc21)C(C)C)C(C)C)C(C)C)C(C)C)[C@@H](C)O)C(C)C)C(C)C)C(=O)N[C@@H](CCCNC(=N)N)C(N)=O [FITC-RV6] ({FITC-Ahx}-RVRVRVRV[dP]PTRVRVRVR-NH2)	strong fluorescence signals	36.0% ± 2.63 % uptake/mg protein	also accumulated in the cytoplasm and nucleus	low specificity for cancer cells	26.6% ± 2.18 % uptake/mg protein			
3.18% ± 0.36 % ID/g	23	3.8	4.01 ± 2.05	23.3 (0.75) %		CC(C)[C@H](NC(=O)[C@H](Cc1c[nH]cn1)NC(=O)[C@@H](NC(=O)[C@H](Cc1c[nH]cn1)NC(=O)[C@@H](NC(=O)[C@H](Cc1c[nH]cn1)NC(=O)[C@@H](NC(=O)[C@@H]1CCCN1C(=O)[C@H]1CCCN1C(=O)[C@@H](NC(=O)[C@H](Cc1c[nH]cn1)NC(=O)[C@@H](NC(=O)[C@H](Cc1c[nH]cn1)NC(=O)[C@@H](NC(=O)[C@H](Cc1c[nH]cn1)NC(=O)[C@@H](NC(=O)[C@H](Cc1c[nH]cn1)NC(=O)CN1CCN(CC(=O)O)CCN(CC(=O)O)CC1)C(C)C)C(C)C)C(C)C)C(C)C)[C@@H](C)O)C(C)C)C(C)C)C(=O)N[C@@H](Cc1c[nH]cn1)C(N)=O [^67Ga-NOTA-HV6, metal not drawn] ({NOTA}-HVHVHVHV[dP]PTHVHVHVH-NH2)								
4.76% ± 1.50 % ID/g	26.9	8	3.35 ± 0.64	27.4 (2.94) %	53.8	CC(C)[C@H](NC(=O)[C@H](CCCNC(=N)N)NC(=O)[C@@H](NC(=O)[C@H](CCCNC(=N)N)NC(=O)[C@@H](NC(=O)[C@H](CCCNC(=N)N)NC(=O)[C@@H](NC(=O)[C@@H]1CCCN1C(=O)[C@H]1CCCN1C(=O)[C@@H](NC(=O)[C@H](CCCNC(=N)N)NC(=O)[C@@H](NC(=O)[C@H](CCCNC(=N)N)NC(=O)[C@@H](NC(=O)[C@H](CCCNC(=N)N)NC(=O)[C@@H](NC(=O)[C@H](CCCNC(=N)N)NC(=O)CN1CCN(CC(=O)O)CCN(CC(=O)O)CC1)C(C)C)C(C)C)C(C)C)C(C)C)[C@@H](C)O)C(C)C)C(C)C)C(=O)N[C@@H](CCCNC(=N)N)C(N)=O [^67Ga-NOTA-RV6, metal not drawn] ({NOTA}-RVRVRVRV[dP]PTRVRVRVR-NH2)								

SMILES	Tumor uptake (KB tumor-bearing mice [5])	tissue uptake at 2 h ([6]; kidney) [%ID/g]	tissue to tissue ratio at 2 h ([6]; tumor/blood)	tissue to tissue ratio at 2 h ([6]; tumor/muscle)	In vitro stability in mouse plasma, percentage of remaining intact radiotracer [7]	tissue uptake at 2 h ([6]; liver) [%ID/g]	Fluorescence signal in 3T3-L1 cells (3T3-L1 cells [1])	Cellular uptake of FITC-CAPs into KB cells (KB cells [2])	Cellular localization in KB cells (KB cells [3])	Difference in FITC-CAP uptake between KB and 3T3-L1 cells (specificity for cancer cells) (3T3-L1 cells [4])	Cellular uptake of FITC-CAPs into 3T3-L1 cells (3T3-L1 cells [4]; 37 °C, 2 h post-incubation, heparin/PBS wash, lysate fluorescence, mean ± SEM, n = 7–13)	Tumor-to-blood ratio compared among tracers (KB tumor-bearing mice [8])	Tumor-to-muscle ratio compared among tracers (KB tumor-bearing mice [8])	tissue uptake at 2 h (in vivo) [%ID/g]
CC(C)[C@H](NC(=O)[C@H](CCCCN)NC(=O)[C@@H](NC(=O)[C@H](CCCCN)NC(=O)[C@@H](NC(=O)[C@H](CCCCN)NC(=O)[C@@H](NC(=O)[C@@H]1CCCN1C(=O)[C@H]1CCCN1C(=O)[C@@H](NC(=O)[C@H](CCCCN)NC(=O)[C@@H](NC(=O)[C@H](CCCCN)NC(=O)[C@@H](NC(=O)[C@H](CCCCN)NC(=O)[C@@H](NC(=O)[C@H](CCCCN)NC(=O)CN1CCN(CC(=O)O)CCN(CC(=O)O)CC1)C(C)C)C(C)C)C(C)C)C(C)C)[C@@H](C)O)C(C)C)C(C)C)C(=O)N[C@@H](CCCCN)C(N)=O [^67Ga-NOTA-KV6, metal not drawn] ({NOTA}-KVKVKVKV[dP]PTKVKVKVK-NH2)	4.46% ± 0.58 % ID/g	118	7.7	5.05 ± 1.51								significantly higher	significantly greater	32.6
